This note sets out measurements from ChEMBL document CHEMBL5034021, “Monomeric, Dimeric, and Trimeric Tropane Alkaloids from Pellacalyx saccardianus” (J Nat Prod, 2021).

Molecules are shown by their SMILES. Active and inactive are the calls of the source. The calls are words filed in the database; no cut-off is given here.

In one series the test system is PANC-1. The experiment in a line: Cytotoxicity against human PANC-1 assessed as cell viability measured for 72 hrs by cell titer glo luminescent assay. Type of series: functional, cell-based. Particulars: for IC50: PANC-1, 72 h.
In a further series the test system is MRC5. The experiment in a line: Cytotoxicity against human MRC5 assessed as cell viability measured for 72 hrs by cell titer glo luminescent assay. Type of series: cell-based. As to conditions: for IC50: Homo sapiens, MRC5, 72 h.
A further series concerns ASPC1. Kind of series: Cytotoxicity against human ASPC1 assessed as cell viability measured for 72 hrs by cell titer glo luminescent assay. The format is functional, cell-based. As to conditions: for IC50: ASPC1, 72 h.
Another series has as its system BXPC-3. Kind of series: Cytotoxicity against human BXPC-3 assessed as cell viability measured for 72 hrs by cell titer glo luminescent assay. The format is functional, cell-based. Particulars: for IC50: BXPC-3, 72 h. (In general: ATP-based viability assays read luminescence as a measure of living cells.)
A further series has as its system SW1990. The experiment in a line: Cytotoxicity against human SW1990 assessed as cell viability measured for 72 hrs by cell titer glo luminescent assay. The format is functional, cell-based. As to conditions: for IC50: SW1990, 72 h.
The test system of series [1] is Trachea. Kind of series: Myorelaxant effect in Sprague-Dawley rat tracheal ring assessed as relaxation of carbachol-induced smooth muscle contraction by organ bath assay. The format is functional.
The subject of series [2] is Trachea. The experiment in a line: Myorelaxant effect in Sprague-Dawley rat tracheal ring assessed as […] relaxation of carbachol-induced smooth muscle contraction by organ bath assay. Type of series: functional, tissue-based.

As to `O=C(/C=C/c1ccccc1)OC1CC2CCC(C1)N2[C@@H](CC(=O)OC1CC2CCC(C1)N2)c1ccccc1` (some centres not stated), the IC50 with PANC-1 was 10.4 µM; in the series with MRC5 it was 8.4 µM; in the series with ASPC1 it was 5.8 µM; with BXPC-3 it was 5.5 µM; in the series on SW1990, over 10 µM.

In the case of `O=C(/C=C/c1ccccc1)OC1CC2CCC(C1)N2C(CC(=O)OC1CC2CCC(C1)N2)c1ccccc1` (racemic), the IC50 in the series on PANC-1 was 10.6 µM; in the series on MRC5, 9.8 µM; in the series on ASPC1, 6 µM; with BXPC-3 it was 4.6 µM; with SW1990, over 10 µM. In the series on Trachea [1], the Emax is 71.9%. Besides, in the series on Trachea [2], the EC50 worked out at 10.4 µM.

In the case of `O=C(/C=C/c1ccccc1)OC1CC2CCC(C1)N2C(=O)CCc1ccc(O)cc1` (configuration not stated), the Emax with Trachea [1] was 106%. For the same compound, the EC50 in the series on Trachea [2] came to 24.2 µM.

As for `O=C(/C=C/c1ccccc1)OC1CC2CCC(C1)N2` (configuration not stated), the result in the series with PANC-1, in the series with ASPC1, with BXPC-3 and with SW1990 was inactive. In the series with Trachea [1], the Emax came out at 82.5%. Moreover, in the series on MRC5 (human, mrc5, 72 h, time 72 hrs), the Activity result is recorded as “Non-Toxic”. For the same compound, the EC50 in the series on Trachea [2] worked out at 0.44 µM.

`O=CN1C2CCC1CC(OC(=O)c1ccccc1)C2` (configuration not stated): the Emax with Trachea [1] amounted to 97%. Further, the EC50 in the series with Trachea [2] came to 3.61 µM.

As for `O=C(OC1CC2CCC(C1)N2)c1ccccc1` (configuration not stated), the maximal response (Emax) with Trachea [1] stood at 101%. The 50% effective concentration (EC50) in the series with Trachea [2] was determined as 7.83 µM.

Consider `CN1[C@@H]2CC[C@H]1C[C@@H](OC(=O)C(CO)c1ccccc1)C2` (mixture of isomers) [ATROPINE], for which the Emax with Trachea [1] is 112%. Besides, the EC50 in the series with Trachea [2] stood at 0.00098 µM.

In the case of `O=C(/C=C/c1ccccc1)OC1CC2CCC(C1)N2[C@H](CC(=O)OC1CC2CCC(C1)N2)c1ccccc1` (some centres not stated), the IC50 is 9.9 µM in the series with PANC-1; over 10 µM in the series on MRC5; 7.7 µM in the series on ASPC1; 6.6 µM in the series with BXPC-3; over 10 µM with SW1990.

`O=C(/C=C/c1ccccc1)OC1CC2CCC(C1)N2C(CC(=O)OC1CC2CCC(C1)N2C(CC(=O)OC1CC2CCC(C1)N2)c1ccccc1)c1ccccc1` (racemic): the IC50 in the series on PANC-1 turned out to be 1.1 µM; with MRC5 it was 4.2 µM; with ASPC1, 3.4 µM; with BXPC-3, 2.2 µM; with SW1990, 5.2 µM.

As for `Nc1ccn([C@@H]2O[C@H](CO)[C@@H](O)C2(F)F)c(=O)n1` [GEMCITABINE], the IC50 is 30 µM in the series on PANC-1; 35.1 µM in the series on MRC5; 29.1 µM in the series on ASPC1; 25.9 µM in the series on BXPC-3; 25.4 µM with SW1990.

Broadly, the IC50 is the point on the concentration scale where inhibition reaches its midpoint. One may read the Emax as the maximal effect, on the per cent scale that the assay sets. Usually EC50 stands for the concentration giving half of the maximal effect.
